Test results: the NIST ThermoML archive (doi:10.1016/j.fluid.2018.06.013)
± gives the expanded uncertainty stated by the source.

Experiment: activity coefficient (dimensionless); of the first substance listed, at infinite dilution; xn = mol fraction of the nth substance listed
Details: 100 kPa, Liquid, Chromatography, x1 = 0

| Structure (SMILES) | activity coefficient (313.15 K) | activity coefficient (323.15 K) | activity coefficient (343.15 K) | activity coefficient (363.15 K) | activity coefficient (373.15 K) |
| --- | --- | --- | --- | --- | --- |
| C=Cc1ccccc1 [styrene] + CCCC[N+]1(C)CCCC1.N#CN=C=[N-] | 1.49 ± 0.15 | 1.54 ± 0.16 | 1.7 ± 0.18 | 1.8 ± 0.19 | 1.9 ± 0.2 |
| C1CCOC1 [tetrahydrofuran] + CCCC[N+]1(C)CCCC1.N#CN=C=[N-] | 1.34 ± 0.14 | 1.39 ± 0.14 | 1.48 ± 0.15 | 1.56 ± 0.16 | 1.6 ± 0.17 |
| c1ccsc1 [thiophene] + CCCC[N+]1(C)CCCC1.N#CN=C=[N-] | 0.807 ± 0.083 | 0.845 ± 0.087 | 0.929 ± 0.095 | 1.01 ± 0.1 | 1.05 ± 0.11 |
| Cc1ccccc1 [toluene] + CCCC[N+]1(C)CCCC1.N#CN=C=[N-] | 2.07 ± 0.22 | 2.14 ± 0.22 | 2.3 ± 0.24 | 2.43 ± 0.26 | 2.48 ± 0.26 |
